For twelve compounds, Ki and melting point results are on record in patent US20100029622A1, “MICROEMULSIONS” (NEUROSCIENZE PHARMANESS S.C.A.R.L., priority 2008, published 2010).

Each structure is given as a SMILES string.

Broadly, the Ki is a dissociation constant, usually derived from enzyme kinetics or from competition with a known ligand. For orientation: melting point means the temperature of the solid-liquid transition.

For one series, the target named is T1, opioidergic receptors μ (Mus musculus, UniProt P42866).
T1 construct: from tissue; host or cells: CD1 mouse total brain (excluding the cerebellum) membranes
The series can be described thus: Radioreceptorial binding, receptors μ ([3H]-DAMGO displacement, brain membranes). Details: species or system mice. To be noted: 1 nM [3H]-DAMGO, 25° C.

Another series has as its target T2, opioidergic receptors δ (Mus musculus, UniProt P32300).
T2 construct: from tissue; host or cells: CD1 mouse total brain (excluding the cerebellum) membranes
The experiment in a line: Radioreceptorial binding, receptors δ ([3H]-DPDPE displacement, brain membranes). Details: species or system mice. To be noted: 1 nM [3H]-DPDPE, 25° C.

In another series the target is T3, opioidergic receptors k (Mus musculus, UniProt P33534).
T3 construct: the complete brain (excluding the cerebellum) was quickly dissected and kept in ice; from tissue; host or cells: CD1 mouse complete brain (excluding the cerebellum) homogenate/membranes
The experiment in a line: Radioreceptorial binding, receptors k (3H-U 69.593, brain membranes). Details: species or system mice. The settings on record: 3H-U 69.593, 25° C. The source says: The affinity of the compounds synthesized in the preceding examples towards the opioidergic receptors μ, δ, k has been evaluated in vitro by radioreceptorial binding studies by using the method reported hereinunder.
The experimentation has been carried out according to the guide lines of the European Community for the animal experimentation (EEC n. 86/609), by using laboratory animals (male mices CD1 Charles River Italy, Calco, LC, Italy) lodged twenty in a cage, under standard stabulation conditions (temperature 22±2° C., relative humidity 60%, artificial light with a light/dark cycle of 12 hours). The food and water were at disposal ad libitum.
Receptors k: CD1 male mice weighing 20-25 g were used. The animals were sacrificed by cervical dislocation and the complete brain (excluding the cerebellum) was quickly dissected and kept in ice. The tissue was homogeneized in 40 volumes (w/v) of Tris-HCl buffer (50 mM, pH 7.4) by an Ultra-Turrax, then centrifuged for 20 minutes at 48,000×g in a centrifuge kept at 4° C. The resulting […] was suspended again in the same buffer and incubated at 37° C. for 30 minutes in a bath kept under oscillation. At the end of the incubation the suspension was centrifuged 48,000×g for 15 minutes and the pellets suspended again in 10 volumes of the Tris-HCl buffer. The binding experiment was carried out in a volume of 1 ml at the temperature of 25° C. with about 800-1000 μg of proteins for sample. The incubation was carried out for 60 minutes in the,presence of different concentrations of the ligand ^3H-U 69.593 (41.7 Ci/mmole). The non specific binding was determined in the presence of U69593 (10 μM). The incubation was stopped by quick filtering by means of a filtration instrument (Brandell®, Gaithersburg, Md., USA) by using GF/C filters (Whatman®).
The radioactivity was determined by a scintillator in liquid phase (Tricarb® 2100, Packard, Meridien, Ill., USA), by using three ml of scintillating fluid (Ultima Cold MV, Packard, Meridien, Ill., USA).
The protein determination was carried out by the Bradford method (1976) by using the protocol and the reactants supplied by Bio-Rad (Milano, Italy).
The affinity of the compounds towards the receptors μ, δ, κ has been expressed in Ki terms.

T2 sequence (P32300 whole entry): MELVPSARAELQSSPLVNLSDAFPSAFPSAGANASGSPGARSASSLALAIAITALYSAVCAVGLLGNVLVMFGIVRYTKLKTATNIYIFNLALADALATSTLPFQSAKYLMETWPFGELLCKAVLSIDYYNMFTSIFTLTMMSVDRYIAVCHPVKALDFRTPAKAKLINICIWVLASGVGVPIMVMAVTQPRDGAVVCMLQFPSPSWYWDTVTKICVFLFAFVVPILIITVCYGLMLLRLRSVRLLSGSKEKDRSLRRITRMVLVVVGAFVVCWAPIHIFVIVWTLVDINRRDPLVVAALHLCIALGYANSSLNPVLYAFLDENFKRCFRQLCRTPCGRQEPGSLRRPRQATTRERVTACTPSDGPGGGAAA
T3 sequence (P33534 whole entry): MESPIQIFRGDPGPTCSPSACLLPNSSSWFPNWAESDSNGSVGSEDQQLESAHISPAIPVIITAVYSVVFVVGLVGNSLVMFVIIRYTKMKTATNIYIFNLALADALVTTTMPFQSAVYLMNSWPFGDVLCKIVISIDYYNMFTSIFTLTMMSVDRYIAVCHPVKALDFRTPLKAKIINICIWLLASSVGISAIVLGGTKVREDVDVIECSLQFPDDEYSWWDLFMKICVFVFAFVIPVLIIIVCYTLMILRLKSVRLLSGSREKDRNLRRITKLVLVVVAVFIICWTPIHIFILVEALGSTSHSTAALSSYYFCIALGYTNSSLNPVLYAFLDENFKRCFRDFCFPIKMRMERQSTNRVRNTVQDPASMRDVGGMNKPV
T1 sequence (P42866 whole entry): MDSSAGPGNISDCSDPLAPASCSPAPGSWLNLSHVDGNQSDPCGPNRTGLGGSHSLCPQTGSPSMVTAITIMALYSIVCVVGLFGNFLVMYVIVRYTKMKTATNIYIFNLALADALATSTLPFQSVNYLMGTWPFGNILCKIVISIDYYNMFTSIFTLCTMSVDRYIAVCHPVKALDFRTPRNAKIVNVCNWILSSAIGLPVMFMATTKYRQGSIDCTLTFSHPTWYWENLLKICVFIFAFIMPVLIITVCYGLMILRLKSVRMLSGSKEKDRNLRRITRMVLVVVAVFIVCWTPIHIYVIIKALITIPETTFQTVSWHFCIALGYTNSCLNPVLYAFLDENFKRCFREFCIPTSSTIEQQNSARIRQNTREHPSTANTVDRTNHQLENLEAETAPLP

With `CCC(=O)N1CCC2CCC(C1)N2C/C=C(\C)c1ccccc1` (stereo not drawn) [I-Aa], the melting point fell in the range of 230 to 232 °C. The affinity on opioidergic receptors μ, expressed as Ki, was 5.7 ± 1 nM. At opioidergic receptors δ, this compound returned a Ki of 425 ± 25 nM. The compound also came in with an inhibition constant Ki at opioidergic receptors k of 55 ± 25 nM.
The matching figures for `CCC(=O)N1CCC2CCC(C1)N2C/C=C(\C)c1ccc(Cl)c(Cl)c1` (stereo not drawn) [I-Ab]: 188 to 189 °C, 7 ± 1.5 nM, 867 ± 44 nM and 100 ± 5 nM.
For `CCC(=O)N1CCC2CCC(C1)N2CC=C(c1ccccc1)c1ccccc1` (stereo not drawn) [I-Ad] the same measures were 176 to 177 °C, 10.7 ± 0.3 nM, 142 ± 25 nM and 103 ± 7 nM.
The matching figures for `CCC(=O)N1C2CCC1CN(C/C=C(\C)c1ccccc1)CC2` (stereo not drawn) [I-Ba]: 228 to 230 °C, 8.3 ± 1.2 nM, 933 ± 33 nM and 900 ± 100 nM.
On to `CCC(=O)N1C2CCC1CN(C/C=C(\C)c1ccc(Cl)c(Cl)c1)CC2` (stereo not drawn) [I-Bb], for which the melting point was in the range of 186 to 188 °C. Further, the inhibitory constant (Ki) at opioidergic receptors μ is 4.1 ± 0.35 nM. This compound gave an inhibition constant Ki on opioidergic receptors δ of 850 ± 58 nM. The Ki on opioidergic receptors k is 393 ± 23 nM.
The matching figures for `CCC(=O)N1C2CCC1CN(CC=C(c1ccccc1)c1ccccc1)CC2` (stereo not drawn) [I-Bd]: 184 to 186 °C, 20.7 ± 2.33 nM, 333 ± 5 nM and 1130 ± 186 nM.
`CCC(=O)N1CCC2CCCC(C1)N2C/C=C(\C)c1ccccc1` (stereo not drawn) [I-Ca] yielded a melting point of 106 to 108 °C. The compound further came in with an inhibitory constant (Ki) at opioidergic receptors μ of 17 ± 1.3 nM. Moreover, on opioidergic receptors δ, affinity was put at a Ki of 1670 ± 166 nM. This compound returned a Ki at opioidergic receptors k of 410 ± 10 nM.
`CCC(=O)N1CCC2CCCC(C1)N2C/C=C(\C)c1ccc(Cl)c(Cl)c1` (stereo not drawn) [I-Cb]: the melting point is 184 to 185 °C. At opioidergic receptors μ, this compound showed an inhibitory constant (Ki) of 4.25 ± 0.3 nM. Besides, the inhibition constant Ki at opioidergic receptors δ is 1120 ± 216 nM. This compound also gave a Ki at opioidergic receptors k of 425 ± 38 nM.
The matching figures for `CCC(=O)N1CCC2CCCC(C1)N2CC=C(c1ccccc1)c1ccccc1` (stereo not drawn) [I-Cc]: 137 to 139 °C, 3.16 ± 0.6 nM, 187 ± 29.7 nM and 40 ± 0.1 nM.
For `CCC(=O)N1C2CCCC1CN(C/C=C(\C)c1ccccc1)CC2` (stereo not drawn) [I-Da] the same measures were 144 to 146 °C, 40 ± 2.8 nM, 3870 ± 125 nM and 1470 ± 317 nM.
Turning to `CCC(=O)N1C2CCCC1CN(C/C=C(\C)c1ccc(Cl)c(Cl)c1)CC2` (stereo not drawn) [I-Db], the melting point lay within 175 to 176 °C. Also, the inhibitory constant (Ki) at opioidergic receptors μ came to 17.5 ± 1.4 nM. Also, the Ki at opioidergic receptors δ was 3250 ± 166 nM. On opioidergic receptors k, this compound had a Ki of 1170 ± 120 nM.
`CCC(=O)N1C2CCCC1CN(CC=C(c1ccccc1)c1ccccc1)CC2` (stereo not drawn) [I-Dc] came in with a melting point of 169 to 170 °C. At opioidergic receptors μ, this compound showed a Ki of 23.3 ± 1.6 nM. Besides, affinity on opioidergic receptors δ was put at a Ki of 1690 ± 312 nM. This compound yielded an inhibition constant (Ki) on opioidergic receptors k of 1930 ± 233 nM.
